Assay results: patent US20080200564A1, “Copolymers Based on N-Vinylpyrrolidone and Branched Aliphatic Carbonxylic Acids, and Their Use as Solubilizers” (BASF Aktiengesellschaft, priority 2005, published 2008)

Experiment: Preparation of solubilizates: content of solubilized active ingredient, measured photometrically
Type: physicochemical
Conditions: pH 7
Description: 2 g of the copolymer were weighed into a beaker. Then, one medicament in each case was weighed into the mixture as follows in order to obtain a supersaturated solution. (If the weighed-in mass dissolved in the medium, the initial weight was increased until a sediment formed). […] Phosphate buffer pH 7.0 was then added until solubilizer and phosphate buffer were present in the weight ratio 1:9. […] There then followed a resting time of at least one hour. Following filtration of the mixture, it was measured photometrically and the content of active ingredient was determined.

Substance	content of solubilized active ingredient, Carbamazepine [g/100 ml]	content of solubilized active ingredient, Piroxicam [g/100 ml]
copolymers of N-vinylpyrrolidone/VEOVA 9 (weight ratio 80/20) [Example 2]	0.17	0.54
copolymers of N-vinylpyrrolidone/N-vinylcaprolactam/VEOVA 10 (weight ratio 70/20/10) [Example 4]	0.21	0.50
copolymers of N-vinylpyrrolidone/VEOVA 9 (weight ratio 90/10) [Example 3]	0.19	0.48
